The target of assay [1] is T1, human A2A adenosine receptor (Homo sapiens, UniProt P29274).
T1 construct: expressed in transfected cells; host or cells: CHO cells (membranes)
The experiment in a line: [3H]ZM241385 binding to human A2A receptors expressed in CHO cells. The following applies: read-out: Ki, [3H]ZM241385 binding to human A2A receptors expressed in CHO cells. The protocol: (§1) The cells were grown adherently and maintained in Dulbecco's modified Eagle's medium with nutrient mixture F12 without nucleosides at 37° C. in 5% CO2/95% air. The cells were washed with phosphate-buffered saline and scraped off flasks in ice cold hypotonic buffer ([…] Tris HCl, 2 mM EDTA, pH 7.4). The cell suspension was homogenized with a Polytron and the homogenate was centrifuged for 30 minutes at 48,000 g. The resultant membrane pellet was re-suspended in 50 mM Tris HCl buffer at pH 7.4 for A1 adenosine receptors; in 50 mM Tris HCl 10 mM MgCl, at pH 7.4 for A2A adenosine receptors; in 50 mM Tris HCl, 10 mM MgCl2, 1 mM EDTA, at pH 7.4 for A3 adenosine receptors and were utilized for binding assays.
(§2) The filter bound radioactivity was counted on Top Count (efficiency 57%) with Micro-Scint 20.
(§3) The filter bound radioactivity was counted on a Top Count brand Microplate Scintillation Counter (efficiency 57%) with Micro-Scint 20. […] Inhibitory binding constant. […] Results and Discussion

Assay [2] addresses T2, human A2B adenosine receptor (Homo sapiens, UniProt P29275).
T2 sequence (P29275 1-332): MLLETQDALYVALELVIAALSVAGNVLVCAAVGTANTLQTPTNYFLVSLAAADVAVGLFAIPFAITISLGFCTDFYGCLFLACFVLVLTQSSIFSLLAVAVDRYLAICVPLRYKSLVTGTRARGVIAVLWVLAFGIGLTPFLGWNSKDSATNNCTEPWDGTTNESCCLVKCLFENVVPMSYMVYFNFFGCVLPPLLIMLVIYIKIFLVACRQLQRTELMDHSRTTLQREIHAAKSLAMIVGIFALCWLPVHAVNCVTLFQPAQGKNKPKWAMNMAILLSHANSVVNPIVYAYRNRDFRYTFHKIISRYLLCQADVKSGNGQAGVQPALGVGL
In words: [3H]DPCPX binding to human A2B receptors expressed in HEK293 cells. The arrangement: host or cells: HEK 293 cells (membranes). Conditions: geometric mean (95% confidence interval); >1000 = no appreciable binding; read-out: Ki, [3H]DPCPX binding to human A2B receptors expressed in HEK293 cells. How it is done: HEK 293 cells transfected with the human recombinant A2B adenosine receptor were obtained from Receptor Biology, Inc. (Beltsville, Md. USA).
Binding of 1 [^3H]-DPCPX to HEK 293 cells transfected with the human recombinant A2B adenosine receptors was performed according to the method described by Varani et al., 2000. In particular, assays were carried out for 60 minutes at 25° C. in 100 μl of […] Tris HCl buffer, […] MgCl2, 1 mM EDTA, 0.1 mM benzamidine pH 7.4, 2 IU/ml adenosine deaminase containing 40 nM [^3H]-DPCPX, diluted membranes (20 μg of protein/assay) and at least 6–8 different concentration of tested compounds.
as §2, §3

For assay [3], the target named is T3, human A3 adenosine receptor (Homo sapiens, UniProt P0DMS8).
T3 construct: expressed in transfected cells; host or cells: CHO cells (membranes)
T3 sequence (P0DMS8 1-318): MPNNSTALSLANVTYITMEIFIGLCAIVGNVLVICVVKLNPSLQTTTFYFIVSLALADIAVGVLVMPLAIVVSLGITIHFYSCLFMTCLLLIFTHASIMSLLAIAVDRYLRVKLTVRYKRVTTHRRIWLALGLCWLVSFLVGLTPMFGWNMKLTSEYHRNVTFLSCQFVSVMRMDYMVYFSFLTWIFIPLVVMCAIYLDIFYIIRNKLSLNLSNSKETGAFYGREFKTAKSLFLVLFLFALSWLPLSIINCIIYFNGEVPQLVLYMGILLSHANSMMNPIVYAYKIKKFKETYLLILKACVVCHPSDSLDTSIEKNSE
The experiment in a line: [3H]MRE3008F20 binding to human A3 receptors expressed in CHO cells. The protocol:
as §1
Binding of [^3H]-MRE3008-F20 to CHO cells transfected with the human recombinant A3 adenosine receptors was performed according to Varani et al., 2000. Competition experiments were carried out in duplicate in a final volume of 250 μl in test tubes containing 1 nM [^3H]-MRE3008-F20, 50 mM Tris HCl buffer, […] MgCl2, pH 7.4 and 100 μl of diluted membranes (50 μg of protein/assay) and at least 6–8 different concentrations of examined ligands for 120 minutes at 4° C.
as §2, §3

Bounds are passed on as bounds.

T1 sequence (P29274 whole entry): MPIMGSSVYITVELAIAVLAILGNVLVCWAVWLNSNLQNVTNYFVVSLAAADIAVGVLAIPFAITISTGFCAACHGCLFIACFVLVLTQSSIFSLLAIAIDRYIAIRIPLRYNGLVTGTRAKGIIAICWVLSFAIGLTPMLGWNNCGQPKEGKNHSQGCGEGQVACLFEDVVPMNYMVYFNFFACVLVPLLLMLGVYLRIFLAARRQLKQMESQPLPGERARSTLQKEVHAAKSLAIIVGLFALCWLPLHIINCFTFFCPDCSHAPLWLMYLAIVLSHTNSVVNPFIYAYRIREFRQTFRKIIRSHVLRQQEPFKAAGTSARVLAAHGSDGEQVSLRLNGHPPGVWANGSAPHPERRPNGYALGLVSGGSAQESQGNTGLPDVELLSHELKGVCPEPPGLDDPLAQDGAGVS

Regarding `CCCn1c(=O)c2[nH]c(-c3cc(NC(=O)CCC(=O)O)nn3C)nc2n(CCC)c1=O` [AS8, 4-{[5-(1,3-dipropyl-2,6-dioxo-2,3,6,7-tetrahydro-1H-purin-8-yl)-1-methyl-1H-pyrazol-3-yl]amino}-4-oxobutanoic acid], the inhibition constant Ki in assay [1], in assay [2] and in assay [3] was greater than 1 µM in each case.
In the case of `CCCn1c(=O)c2[nH]c(-c3cc(OCC(=O)Nc4ccc(OC)cc4)no3)nc2n(CCC)c1=O` [AS75, 1,3-di-n-propyl-8-{3-[(4-methoxy-phenylcarbamoyl)-methoxy]-isoxazol-5-yl}-xanthine], the Ki in assay [1] is greater than 1 µM; in assay [2] it was 0.053 µM; in assay [3] it was greater than 1 µM.
Regarding `CCCn1c(=O)c2[nH]c(-c3cc(C(=O)O)n(C)n3)nc2n(CCC)c1=O` [AS1, 1,3-di-n-propyl-8-(1-methyl-5-carboxy-1-H-pyrazol-3-yl)-xanthine], the Ki in assay [1], in assay [2] and in assay [3] was greater than 1 µM each time.
As for `CCCn1c(=O)c2[nH]c(-c3cc(OCC(=O)Nc4ccc(C(=O)O)cc4)nn3C)nc2n(CCC)c1=O` [AS95, 1,3-di-n-propyl-8-{5-[(4-carboxy-phenylcarbamoyl)-methoxy]-2-methyl-2H-pyrazole-3-yl}-xanthine], the Ki in assay [1] was greater than 1 µM; in assay [2], 0.036 µM; in assay [3], greater than 1 µM.
Turning to `CCCn1c(=O)c2[nH]c(-c3cc(OCC(=O)Nc4ccc(C(=O)OCC)cc4)nn3C)nc2n(CCC)c1=O` [AS94, 1,3-di-n-propyl-8-{5-[(4-(ethoxycarbonyl)-phenylcarbamoyl)-methoxy]-2-methyl-2H-pyrazole-3-yl}-xanthine], the Ki is greater than 1 µM in assay [1], 0.032 µM in assay [2] and greater than 1 µM in assay [3].
For the compound `CCCn1c(=O)c2[nH]c(-c3cc(OCC(=O)N4CCN(C)CC4)nn3C)nc2n(CCC)c1=O` [AS87, 1,3-di-n-propyl-8-{5-[2-Oxo-2-(4-methyl-piperazin-1-yl)-ethoxy]-2-methyl-2H-pyrazole-3-yl}-xanthine], the Ki in assay [1] was greater than 1 µM; in assay [2] it was 0.122 µM; in assay [3], greater than 1 µM.
Consider `CCCn1c(=O)c2[nH]c(-c3cc(NC(=O)Cc4ccc(N(C)C)cc4)nn3C)nc2n(CCC)c1=O` [AS26, N-[5-(2,6-dioxo-1,3-dipropyl-2,3,6,9-tetrahydro-1H-purin-8-yl)-1-methyl-1H-pyrazol-3-yl]-2-[4-(N,N-dimethylamino)phenyl]acetamide], for which the Ki was greater than 1 µM in assay [1], 1.63 µM in assay [2] and greater than 1 µM in assay [3].
For `CCCn1c(=O)c2[nH]c(-c3cc(NC(=O)Cc4ccc(CC(C)C)cc4)nn3C)nc2n(CCC)c1=O` [AS14, N-[5-(2,6-dioxo-1,3-dipropyl-2,3,6,9-tetrahydro-1H-purin-8-yl)-1-methyl-1H-pyrazol-3-yl]-2-(4-isobutylphenyl)acetamide], the Ki in assay [1], in assay [2] and in assay [3] was greater than 1 µM throughout.
As for `CCCn1c(=O)c2[nH]c(-c3cc(OCC(=O)Nc4ccc(F)cc4)no3)nc2n(CCC)c1=O` [AS73, 1,3-di-n-propyl-8-{3-[(4-fluoro-phenylcarbamoyl)-methoxy]-isoxazol-5-yl}-xanthine], the inhibitory constant (Ki) in assay [1] is greater than 1 µM; in assay [2] it was 0.07 µM; in assay [3], greater than 1 µM.
With `C=CCn1c(=O)c2[nH]c(-c3cc(OCC(=O)N4CCN(c5ccccc5)CC4)nn3C)nc2n(CC=C)c1=O` [AS96, 1,3-di-allyl-8-{5-[2-oxo-2-(4-phenyl-piperazin-1-yl)-ethoxy]-2-methyl-2H-pyrazole-3-yl}-xanthine], the Ki in assay [1] was greater than 1 µM; in assay [2] it was 0.024 µM; in assay [3], greater than 1 µM.
On to `CCCn1c(=O)c2[nH]c(-c3cc(NC(=O)[C@H](C)c4ccccc4)nn3C)nc2n(CCC)c1=O` [AS19, (2R)-N-[5-(2,6-dioxo-1,3-dipropyl-2,3,6,7-tetrahydro-1H-purin-8-yl)-1-methyl-1H-pyrazol-3-yl]-2-phenylpropanamide], for which the Ki in assay [1], in assay [2] and in assay [3] was greater than 1 µM each time.
For `CCCn1c(=O)c2[nH]c(-c3cc(OCC(=O)N4CCN(c5ccc(F)cc5)CC4)nn3C)nc2n(CCC)c1=O` [AS72, 8-(5-{2-[4-(4-Fluoro-phenyl)-piperazin-1-yl]-2-oxo-ethoxy}-2-methyl-2H-pyrazol-3-yl)-1,3-dipropyl-3,7-dihydro-purine-2,6-dione], the values for the Ki in assay [1], in assay [2] and in assay [3] were greater than 1 µM, 0.055 µM and greater than 1 µM, respectively.
For `CCCn1c(=O)c2[nH]c(-c3cc(OCC(=O)Nc4ccc(OC)c(OC)c4)no3)nc2n(CCC)c1=O` [AS76, 1,3-di-n-propyl-8-{3-[(3,4-dimethoxy-phenylcarbamoyl)-methoxy]-isoxazol-5-yl}-xanthine], the Ki in assay [1] was greater than 1 µM; in assay [2] it was 0.051 µM; in assay [3] it was greater than 1 µM.
Regarding `CCCn1c(=O)c2[nH]c(-c3cc(OCC(=O)Nc4ccc(N5CCOCC5)cc4)nn3C)nc2n(CCC)c1=O` [AS93, 1,3-di-n-propyl-8-{5-[(4-(morpholine-4-yl)-phenylcarbamoyl)-methoxy]-2-methyl-2H-pyrazole-3-yl}-xanthine], the Ki in assay [1] was greater than 1 µM; in assay [2], 0.086 µM; in assay [3], greater than 1 µM.
On to `Cn1nc(NC(=O)Cc2ccccc2)cc1-c1nc2c([nH]1)c(=O)n(C)c(=O)n2C` [AS40, N-[5-(2,6-dioxo-1,3-dimethyl-2,3,6,9-tetrahydro-1H-purin-8-yl)-1-methyl-1H-pyrazol-3-yl]-2-phenylacetamide], for which the figures for the Ki in assay [1], in assay [2] and in assay [3] were greater than 1 µM, 0.569 µM and greater than 1 µM, respectively.
For the compound `CCCn1c(=O)c2[nH]c(-c3ccc(OCC(=O)Nc4ccc(I)cc4)nc3)nc2n(CCC)c1=O` [AS81, 1,3-di-n-propyl-8-{6-[(4-iodo-phenylcarbamoyl)-methoxy]-pyridin-3-yl}-xanthine], the Ki in assay [1] was greater than 1 µM; in assay [2], 0.108 µM; in assay [3], greater than 1 µM.
For `CCCn1c(=O)c2[nH]c(-c3cc(OCC(=O)Nc4ccc(OC)c(OC)c4)nn3C)nc2n(CCC)c1=O` [AS101, 1,3-di-n-propyl-8-{5-[(3,4-dimethoxy-phenylcarbamoyl)-methoxy]-2-methyl-2H-pyrazole-3-yl}-xanthine], the inhibitory constant (Ki) in assay [1] was greater than 1 µM; in assay [2] it was 0.012 µM; in assay [3], greater than 1 µM.
Turning to `CCCn1c(=O)c2[nH]c(-c3cc(NC(=O)[C@@H](C)c4ccccc4)nn3C)nc2n(CCC)c1=O` [AS18, (2S)-N-[5-(2,6-dioxo-1,3-dipropyl-2,3,6,7-tetrahydro-1H-purin-8-yl)-1-methyl-1H-pyrazol-3-yl]-2-phenylpropanamide], the Ki in assay [1], in assay [2] and in assay [3] was greater than 1 µM throughout.
Turning to `CCCn1c(=O)c2[nH]c(-c3ccc(OCC(=O)Nc4ccc(I)cc4)nn3)nc2n(CCC)c1=O` [AS85, 1,3-di-n-propyl-8-{6-[(4-iodo-phenylcarbamoyl)-methoxy]-pyridazin-3-yl}-xanthine], the inhibition constant (Ki) in assay [1], in assay [2] and in assay [3] was greater than 1 µM each time.
